Source: patent publication US20240043797A1, “METHOD FOR MASS PRODUCTION OF HIGHLY PURE, STEM CELL-DERIVED EXTRACELLULAR VESICLE BY USING PEPTIDE” (INDUSTRY-ACADEMIC COOPERATION FOUNDATION, CHOSUN UNIVERSITY, priority 2020, published 2024)
Ends that are not written are not given here. Peptide text beside a SMILES is read from it.

Experiments:
Assay type in all cases: cell-based
mesenchymal stem cells = assay: Inhibitor assay: EV production after pretreatment with BAPTA-AM or ALLM; conditions: TS-eEV production; cells pretreated with 50 μM BAPTA-AM 1 hour or 10 μM ALLM 18 hours
Experimental: The cells were pretreated with 50 μM BAPTA-AM (calcium-selective chelator) for 1 hour and with 10 μM ALLM (calpain inhibitor) for 18 hours. Comparison was made of EV production outputs among the method used, and the results are shown in FIGS. 14a and 14b and Table 15.

[1] = Viability of umbilical cord MSCs against eMTD peptide, absorbance analysis (ez-cytox, 450 nm; 'MTT assay')
Experimental: Mesenchymal stem cells derived from the umbilical cord (Wharton's jelly-derived MSCs, WJ-MSCs) were assayed for viability by treatment with the eMTD peptide at predetermined concentrations for predetermined periods of time. Tests were conducted with predetermined concentrations of the eMTD peptide. In this regard, umbilical cord-derived mesenchymal stem cells were seeded at a density of 2×10^4 cells/well into 24-well plates (30024, SPL). After 24 hours of incubation, the eMTD peptide in a sucrose buffer was applied at a final concentration of 0, 0.5, 1, 3, 5, 10, or 20 μM to the cells. The sucrose buffer contained glucose, sucrose, and 3-(N-morpholino)propanesulfonic acid [MOPS] at the respective concentrations shown in Table 2. After 15 minutes, the cells were incubated with ez-cytox (EZ-3000, DOGEN) for 30 to 60 minutes. Then, absorbance was read at 450 nm using a Bio-RAD x-Mark™ spectrophotometer (Bio-Rad Laboratories, USA). In addition, treatment with the eMTD peptide was conducted over various times. In this regard, umbilical cord-derived mesenchymal stem cells were seeded at a density of 2×10^4 cells/well into 24-well plates and incubated for 24 hours. Thereafter, the cells were treated with 1 μM of the eMTD peptide in the sucrose buffer for various periods of time (0, 5, 10, 15, 20, 25, or 30 minutes). After 15 minutes of treatment, the cells were incubated for 30 to 60 minutes with ez-cytox (EZ-3000, DOGEN). Absorbance was read at 450 nm using the Bio-RAD x-Mark™ spectrophotometer (Bio-Rad Laboratories, USA).

[2] = Viability of umbilical cord MSCs against eMTD peptide, cell counting with trypan blue (TB assay)
Experimental: To measure the number of cells, umbilical cord-derived mesenchymal stem cells were seeded at a density of 2.5×10^4 cells/well into 12-well plates (30012, SPL) and incubated for 24 hours. The eMTD peptide in the sucrose buffer of Table 2 was applied at a final concentration of 0, 0.5, 1.0, 3.0, 5.0, 10.0, or 20.0 μM to the cells. After 15 minutes, the cells were counted using a trypan blue solution. Separately, umbilical cord-derived mesenchymal stem cells were seeded at a density of 2.5×10^4 cells/well into 12-well plates (30012, SPL) and incubated for 24 hours. The cells were treated with the eMTD peptide in the sucrose buffer of Table 2 for various periods of time (0, 5, 10, 15, 20, 25, and 30 minutes). After each period, the cells were counted using a trypan blue solution, and the results are depicted in FIG. 2 and summarized in Tables 5 and 6.

CSCC[C@@H](C=O)NC(=O)[C@H](CC(C)C)NC(=O)[C@H](CC(C)C)NC(C)=O [ALLM] (Ac-Leu-Leu-Met-aldehyde)
EV production (particle number/cell) (mesenchymal stem cells): 8.25 × 10^3 ± 9.96 × 10^2 particle number/cell

CC(=O)OCOC(=O)CN(CC(=O)OCOC(C)=O)c1ccccc1OCCOc1ccccc1N(CC(=O)OCOC(C)=O)CC(=O)OCOC(C)=O [BAPTA-AM]
EV production (particle number/cell) (mesenchymal stem cells): 7.34 × 10^3 ± 9.08 × 10^2 particle number/cell

KLNFRQKLLNLISKLFCSGT [eMTD]
viability at 5 min, 1 μM ([1]; MTT assay, 1 μM eMTD, time 5 min, read-out: Cell viability (%)): 52.7%
viability at 10 min, 1 μM ([1]; MTT assay, 1 μM eMTD, time 10 min, read-out: Cell viability (%)): 41.8%
viability at 15 min, 1 μM ([1]; MTT assay, 1 μM eMTD, time 15 min, read-out: Cell viability (%)): 37%
viability at 20 min, 1 μM ([1]; MTT assay, 1 μM eMTD, time 20 min, read-out: Cell viability (%)): 29.4%
viability at 25 min, 1 μM ([1]; MTT assay, 1 μM eMTD, time 25 min, read-out: Cell viability (%)): 18.5%
viability at 30 min, 1 μM ([1]; MTT assay, 1 μM eMTD, time 30 min, read-out: Cell viability (%)): 17.8%
viability at 15 minutes, 0.5 μM ([1]; MTT assay, eMTD 0.5 μM, 15 minutes, read-out: Cell viability (%)): 53.9%
viability at 15 minutes, 1 μM ([1]; MTT assay, eMTD 1.0 μM, 15 minutes, read-out: Cell viability (%)): 57.4%
viability at 15 minutes, 3 μM ([1]; MTT assay, eMTD 3.0 μM, 15 minutes, read-out: Cell viability (%)): 13.6%
viability at 15 minutes, 5 μM ([1]; MTT assay, eMTD 5.0 μM, 15 minutes, read-out: Cell viability (%)): 5.8%
viability at 15 minutes, 10 μM ([1]; MTT assay, eMTD 10.0 μM, 15 minutes, read-out: Cell viability (%)): 2.9%
viability at 15 minutes, 20 μM ([1]; MTT assay, eMTD 20.0 μM, 15 minutes, read-out: Cell viability (%)): 4.1%
viability at 15 minutes, 1 μM ([1]; cell viability): ~50%
viability at 15 minutes, 10 μM [2]: 0%
viability at 15 minutes, 0.5 μM ([2]; umbilical cord-derived mesenchymal stem cells, TB assay, eMTD 0.5 μM, 15 minutes): 66.7%
viability at 15 minutes, 1 μM ([2]; umbilical cord-derived mesenchymal stem cells, TB assay, eMTD 1.0 μM, 15 minutes): 66.3%
viability at 15 minutes, 3 μM ([2]; umbilical cord-derived mesenchymal stem cells, TB assay, eMTD 3.0 μM, 15 minutes): 21.9%
viability at 15 minutes, 5 μM ([2]; umbilical cord-derived mesenchymal stem cells, TB assay, eMTD 5.0 μM, 15 minutes): 11.2%
viability at 15 minutes, 20 μM ([2]; umbilical cord-derived mesenchymal stem cells, TB assay, eMTD 20.0 μM, 15 minutes): 2.1%
viability at 5 min ([2]; umbilical cord-derived mesenchymal stem cells, TB assay, time 5 min): 40%
viability at 10 min ([2]; umbilical cord-derived mesenchymal stem cells, TB assay, time 10 min): 29.7%
viability at 15 min ([2]; umbilical cord-derived mesenchymal stem cells, TB assay, time 15 min): 38.5%
viability at 20 min ([2]; umbilical cord-derived mesenchymal stem cells, TB assay, time 20 min): 35.9%
viability at 25 min ([2]; umbilical cord-derived mesenchymal stem cells, TB assay, time 25 min): 14.6%
viability at 30 min ([2]; umbilical cord-derived mesenchymal stem cells, TB assay, time 30 min): 15.6%
